Results from patent US20130045962A1, “PEPTIDE DEFORMYLASE INHIBITORS” (priority 2007, published 2013).
≈ marks a conversion by molar mass, not a printed value. Where “and” joins values, the source holds several entries; their conditions need not be identical. Identical values can stand only once. Like-named read-outs stand apart in the source and are kept apart here.

Tests used:
Test in all cases: Antimicrobial activity assay (broth microdilution MIC)
Type in all cases: cell-based
[1] = tested on: Haemophilus influenzae Q1; settings: for MIC: Haemophilus influenzae, read-out: MIC H. influenzae Q1; for MIC H. influenzae Q1: individual results
Procedure: (§1) Whole-cell antimicrobial activity was determined by broth microdilution using the Clinical and Laboratory Standards Institute (CLSI, formerly NCCLS) recommended methodology (NCCLS Document M7-A6, “Methods for Dilution Susceptibility Tests for Bacteria that Grow Aerobically Approved Standard Sixth Edition”, 2003). Compounds were tested in serial two-fold dilutions ranging from 64 to 0.06 μg/mL. A panel of 12 strains was evaluated in the assay. This panel consisted of the following laboratory strains: Staphylococcus aureus Oxford, Staphylococcus aureus WCUH29, Enterococcus faecalis I, Enterococcus faecalis 7, Haemophilus influenzae Q1, Haemophilus influenzae NEMC1, Moraxella catarrhalis 1502, Streptococcus pneumoniae 1629, Streptococcus pneumoniae N1387, Streptococcus pneumoniae Ery2, Escherichia coli 7623 (AcrABEFD+) and Escherichia coli 120 (AcrAB−). The minimum inhibitory concentration (MIC) was determined as the lowest concentration of compound that inhibited visible growth. A mirror reader was used to assist in determining the MIC endpoint.

[2] = tested on: Escherichia coli 120 (AcrAB−); settings: for MIC: Escherichia coli; for MIC E. coli 120 AcrAB—: individual results, panel run 2 times
Procedure: as §1

[3] = tested on: Escherichia coli 7623 (AcrABEFD+); settings: for MIC: Escherichia coli, read-out: MIC E. coli 7623 AcrABEFD+
Procedure: as §1

[4] = tested on: Haemophilus influenzae NEMC1; settings: for MIC: Haemophilus influenzae, read-out: MIC H. influenzae NEMC1
Procedure: as §1

[5] = tested on: Streptococcus pneumoniae 1629; settings: median of all results obtained, read-out: MIC S. pneumoniae 1629
Procedure: as §1

[6] = tested on: Streptococcus pneumoniae N1387; settings: median of all results obtained, read-out: MIC S. pneumoniae N1387
Procedure: as §1

[7] = tested on: Staphylococcus aureus Oxford; settings: median of all results obtained, read-out: MIC S. aureus Oxford
Procedure: as §1

Enterococcus faecalis I = settings: median of all results obtained, read-out: MIC E. faecalis I
Procedure: as §1

Enterococcus faecalis 7 = settings: median of all results obtained, read-out: MIC E. faecalis 7
Procedure: as §1

[8] = Q1, median of all results obtained
[9] = read-out: MIC E. coli 120 AcrAB—, median of all results obtained
[10] = NEMC1, median of all results obtained
[11] = Q1, individual results, panel run 2 times
[12] = individual results, panel run 2 times
[13] = NEMC1, individual results, panel run 2 times

Compound	MIC [1, 8]	MIC [2, 9]	MIC ([3]; median of all results obtained)	MIC [4, 10]	MIC [1, 11]	MIC H. influenzae Q1 ([1]; panel run 2 times)	MIC E. coli 7623 AcrABEFD+ [3, 12]	MIC [4, 13]	MIC E. coli 120 AcrAB— [2]	other results
C[C@@H]1CN(C)CCN1c1nc(Cl)nc(NNC(=O)[C@H](CC2CCCC2)CN(O)C=O)c1F [Example 63, [(2R)-3-(2-{2-Chloro-6-[(2R)-2,4-dimethyl-1-piperazinyl]-5-fluoro-4-pyrimidinyl}hydrazino)-2-(cyclopentylmethyl)-3-oxopropyl]hydroxyformamide]	0.25 µg/mL (≈ 0.53 µM)	0.25 µg/mL (≈ 0.53 µM)	4 µg/mL (≈ 8.48 µM)	0.5 µg/mL (≈ 1.06 µM)	–	–	–	–	–	–
Cc1nc(NNC(=O)[C@H](CC2CCCC2)CN(O)C=O)c(F)c(N2CCN3CCOC[C@@H]3C2)n1 [Example 24, [(2R)-2-(Cyclopentylmethyl)-3-(2-{5-fluoro-6-[(9aS)-hexahydropyrazino[2,1-c][1,4]oxazin-8(1H)-yl]-2-methyl-4-pyrimidinyl}hydrazino)-3-oxopropyl]hydroxyformamide]	0.5 µg/mL (≈ 1.04 µM)	0.188 µg/mL (≈ 0.391 µM)	16 µg/mL (≈ 33.4 µM)	1 µg/mL (≈ 2.09 µM)	–	–	–	–	–	MIC [5]: 0.75 µg/mL (≈ 1.56 µM); MIC [6]: 0.5 µg/mL (≈ 1.04 µM); MIC [7]: 2 µg/mL (≈ 4.17 µM); MIC (Enterococcus faecalis I): 48 µg/mL (≈ 100 µM); MIC (Enterococcus faecalis 7): 32 µg/mL (≈ 66.7 µM)
CN1CCN(c2nc(Cl)nc(NNC(=O)[C@H](CC3CCCC3)CN(O)C=O)c2F)CC12CC2 [Example 172, [(2R)-3-{2-[2-Chloro-5-fluoro-6-(4-methyl-4,7-diazaspiro[2.5]oct-7-yl)-4-pyrimidinyl]hydrazino}-2-(cyclopentylmethyl)-3-oxopropyl]hydroxyformamide]	–	–	–	–	1 µg/mL (≈ 2.07 µM)	2 µg/mL (≈ 4.13 µM)	4 µg/mL and 16 µg/mL	1 µg/mL (≈ 2.07 µM)	–	MIC ([2]; read-out: MIC E. coli 120 AcrAB—, individual results, panel run 2 times): 0.125 to 0.5 µg/mL (≈ 0.258 to 1.03 µM); MIC H. influenzae NEMC1 [4, 12]: 2 µg/mL (≈ 4.13 µM)
Cc1nc(NNC(=O)[C@H](CC2CCCC2)CN(O)C=O)c(F)c(N2CCN(C)C[C@H]2C)n1 [Example 109, [(2R)-2-(Cyclopentylmethyl)-3-(2-{6-[(2R)-2,4-dimethyl-1-piperazinyl]-5-fluoro-2-methyl-4-pyrimidinyl}hydrazino)-3-oxopropyl]hydroxyformamide]	–	–	–	–	0.5 µg/mL (≈ 1.11 µM)	–	–	1 µg/mL (≈ 2.21 µM)	≦0.06, μg/mL and 0.125 μg/mL	MIC [3, 12]: 8 µg/mL (≈ 17.7 µM)
Cc1nc(NNC(=O)[C@H](CC2CCCC2)CN(O)C=O)c(F)c(N2CCN(C)C3(CC3)C2)n1 [Example 275, ((2R)-2-(Cyclopentylmethyl)-3-{2-[5-fluoro-2-methyl-6-(4-methyl-4,7-diazaspiro[2.5]oct-7-yl)-4-pyrimidinyl]hydrazino}-3-oxopropyl)hydroxyformamide]	–	–	–	–	0.5 µg/mL (≈ 1.08 µM)	1 µg/mL (≈ 2.16 µM)	4 µg/mL and 16 µg/mL	1 µg/mL (≈ 2.16 µM)	≦0.06, μg/mL and 0.5 μg/mL	–
